Laboratory results taken from article PMC5454994, “Assembly of Hepatocyte Spheroids Using Magnetic 3D Cell Culture for CYP450 Inhibition/Induction” (International Journal of Molecular Sciences, 2017).

How the values were obtained:
CYP1A2 = molecular target: T1, CYP1A2 (Homo sapiens, UniProt P05177); assay: CYP1A2 activity (P450-Glo, Luciferin-1A2) in primary human hepatocyte spheroids and monolayers after 72 h drug exposure; type: in vitro ADME; conditions: primary human hepatocytes, 72 h exposure
T1 sequence (P05177 1-516): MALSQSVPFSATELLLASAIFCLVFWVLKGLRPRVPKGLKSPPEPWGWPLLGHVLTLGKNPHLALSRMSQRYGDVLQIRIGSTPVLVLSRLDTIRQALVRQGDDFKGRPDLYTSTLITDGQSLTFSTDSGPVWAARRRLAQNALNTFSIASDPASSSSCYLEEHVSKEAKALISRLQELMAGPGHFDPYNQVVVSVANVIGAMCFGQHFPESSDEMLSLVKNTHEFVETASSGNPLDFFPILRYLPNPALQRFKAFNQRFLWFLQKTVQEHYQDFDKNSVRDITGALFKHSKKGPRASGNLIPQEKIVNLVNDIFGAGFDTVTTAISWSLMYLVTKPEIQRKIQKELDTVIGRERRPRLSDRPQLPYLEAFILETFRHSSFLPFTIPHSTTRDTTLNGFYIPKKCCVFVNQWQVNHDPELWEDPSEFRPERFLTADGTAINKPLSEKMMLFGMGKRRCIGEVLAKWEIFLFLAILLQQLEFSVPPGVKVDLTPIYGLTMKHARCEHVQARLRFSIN

CYP2B6 = molecular target: T2, CYP2B6 (Homo sapiens, UniProt P20813); conditions: CYP2B6 replicates, primary human hepatocytes, 72 h exposure
T2 sequence (P20813 1-491): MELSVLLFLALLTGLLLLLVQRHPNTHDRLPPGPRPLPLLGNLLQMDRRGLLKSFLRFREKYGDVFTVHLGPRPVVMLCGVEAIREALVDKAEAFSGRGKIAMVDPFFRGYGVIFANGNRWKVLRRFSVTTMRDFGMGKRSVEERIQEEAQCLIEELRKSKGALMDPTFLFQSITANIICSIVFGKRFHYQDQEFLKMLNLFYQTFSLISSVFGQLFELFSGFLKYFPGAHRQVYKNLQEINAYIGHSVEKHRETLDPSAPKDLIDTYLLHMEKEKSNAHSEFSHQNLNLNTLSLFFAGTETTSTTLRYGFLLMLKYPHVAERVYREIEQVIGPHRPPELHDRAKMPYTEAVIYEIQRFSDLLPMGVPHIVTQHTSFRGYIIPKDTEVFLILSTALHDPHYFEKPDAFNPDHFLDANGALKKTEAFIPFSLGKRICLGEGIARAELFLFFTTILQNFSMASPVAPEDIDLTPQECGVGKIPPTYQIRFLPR

Compound: COc1ccc2[nH]c([S+]([O-])Cc3ncc(C)c(OC)c3C)nc2c1 (stereo not drawn) [omeprazole]
- CYP1A2 activity in the presence of toxicity (CYP1A2): no observed decrease in CYP activity despite toxicity
- CYP1A2 induction, monolayers compared to spheroids (CYP1A2; normalized to control): higher in monolayers compared to spheroids

Compound: CO[C@H]1/C=C/O[C@@]2(C)Oc3c(C)c(O)c4c(O)c(c(/C=N/N5CCN(C)CC5)c(O)c4c3C2=O)NC(=O)/C(C)=C\C=C\[C@H](C)[C@H](O)[C@@H](C)[C@@H](O)[C@@H](C)[C@H](OC(C)=O)[C@@H]1C [rifampicin]
- CYP2B6 activity in the presence of toxicity (CYP2B6): no observed decrease in CYP activity despite toxicity
